From ChEMBL document CHEMBL1201862, “PubChem BioAssay data set” (2004)
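All cell lines were grown in 96-well plates and treated with compound for 48 hours. GI50: concentration for 50% inhibition of growth.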 The source made the active and inactive calls. Cut-off read from the data, not from the text of the source: active = GI50 up to about 1.1 µM and inactive = higher.

Columns and labels:
Experiment in all cases: NCI tumour cell line growth inhibition, 48 h
NCI-H23 = tested on: NCI-H23
DMS-114 = tested on: DMS-114
Malme-3M = tested on: Malme-3M
KM-20L2 = tested on: KM-20L2
M19-MEL = tested on: M19-MEL
SK-MEL-2 = tested on: SK-MEL-2
IGROV-1 = tested on: IGROV-1
MCF7 = tested on: MCF7
SF-539 = tested on: SF-539
DMS-273 = tested on: DMS-273
OVCAR-8 = tested on: OVCAR-8
SR = tested on: SR
ACHN = tested on: ACHN
LXFL 529 = tested on: LXFL 529
786-0 = tested on: 786-0
Hs-578T = tested on: Hs-578T
PC-3 = tested on: PC-3
DU-145 = tested on: DU-145
T47D = tested on: T47D
MDA-MB-231 = tested on: MDA-MB-231

| Compound | GI50 (NCI-H23) | GI50 (DMS-114) | GI50 (Malme-3M) | GI50 (KM-20L2) | GI50 (M19-MEL) | GI50 (SK-MEL-2) | GI50 (IGROV-1) | GI50 (MCF7) | GI50 (SF-539) | GI50 (DMS-273) | GI50 (OVCAR-8) | GI50 (SR) | GI50 (ACHN) | GI50 (LXFL 529) | GI50 (786-0) | GI50 (Hs-578T) | GI50 (PC-3) | GI50 (DU-145) | GI50 (T47D) | GI50 (MDA-MB-231) |
| --- | --- | --- | --- | --- | --- | --- | --- | --- | --- | --- | --- | --- | --- | --- | --- | --- | --- | --- | --- | --- |
| O=NN1C(c2ccccc2)CNC(=O)CC1c1ccccc1 (stereo unspecified) | 33.1 µM (inactive) | 22.7 µM (inactive) | 50.9 µM (inactive) | 25.3 µM (inactive) | 50.1 µM (inactive) | 33.7 µM (inactive) | 63.5 µM (inactive) | 24.9 µM (inactive) | 35.4 µM (inactive) | 27.4 µM (inactive) | 65.5 µM (inactive) | – | – | – | – | – | – | – | – | – |
| COc1ccc(C[C@H](N)C(=O)N2C[C@H](CO)C[C@H](n3cnc4c(N(C)C)ncnc43)C2)cc1 | > 100 µM (inactive) | > 100 µM (inactive) | > 100 µM (inactive) | > 100 µM (inactive) | > 100 µM (inactive) | > 100 µM (inactive) | > 100 µM (inactive) | – | > 100 µM (inactive) | > 100 µM (inactive) | > 100 µM (inactive) | > 100 µM (inactive) | > 100 µM (inactive) | > 100 µM (inactive) | – | – | – | – | – | – |
| O=c1c(C(c2ccccn2)c2c(O)oc3cc(O)ccc3c2=O)c(O)oc2cc(O)ccc12 | > 100 µM (inactive) | – | – | – | – | > 100 µM (inactive) | > 100 µM (inactive) | > 100 µM (inactive) | > 100 µM (inactive) | – | 44.2 µM (inactive) | > 100 µM (inactive) | > 100 µM (inactive) | – | > 100 µM (inactive) | > 100 µM (inactive) | > 100 µM (inactive) | > 100 µM (inactive) | > 100 µM (inactive) | > 100 µM (inactive) |
| CC(C)(C)[Si](C)(C)OC[C@H](/C=C\CCCC(=O)O)NC1(c2ccccc2)c2ccccc2-c2ccccc21 | 14.7 µM (inactive) | – | – | – | – | 11.9 µM (inactive) | 16.7 µM (inactive) | 10.4 µM (inactive) | 16.3 µM (inactive) | – | 16.6 µM (inactive) | 4.65 µM (inactive) | 11.8 µM (inactive) | – | 14 µM (inactive) | 20 µM (inactive) | 6.52 µM (inactive) | 25.9 µM (inactive) | 7.38 µM (inactive) | 14.3 µM (inactive) |
| O=C1CCCCN1 | > 1120 µM (inactive) | > 1120 µM (inactive) | > 1120 µM (inactive) | > 1120 µM (inactive) | > 403 µM (inactive) | > 1120 µM (inactive) | > 1120 µM (inactive) | > 1120 µM (inactive) | > 1120 µM (inactive) | > 1120 µM (inactive) | > 1120 µM (inactive) | – | – | – | – | – | – | – | – | – |
| COc1ccc(-c2c3c(nc4nc(SC)nc(SC)c24)CCCC3)cc1OC | > 100 µM (inactive) | – | 42.5 µM (inactive) | – | – | 25.8 µM (inactive) | > 100 µM (inactive) | 41.5 µM (inactive) | > 100 µM (inactive) | – | – | 8.07 µM (inactive) | 72.4 µM (inactive) | – | – | 19.1 µM (inactive) | 60 µM (inactive) | > 100 µM (inactive) | 47.6 µM (inactive) | 40.6 µM (inactive) |
| OC[C@@H](O)[C@H]1NC[C@@H](O)[C@H]1O | > 100 µM (inactive) | – | > 100 µM (inactive) | – | – | – | > 100 µM (inactive) | > 100 µM (inactive) | > 100 µM (inactive) | – | > 100 µM (inactive) | > 100 µM (inactive) | > 100 µM (inactive) | – | > 100 µM (inactive) | > 100 µM (inactive) | > 100 µM (inactive) | > 100 µM (inactive) | – | – |
| CC(=O)c1cccc(NC(=O)C(=O)C(C(=O)NN)c2ccccc2)c1 (stereo unspecified) | > 100 µM (inactive) | > 100 µM (inactive) | > 100 µM (inactive) | > 100 µM (inactive) | > 100 µM (inactive) | > 100 µM (inactive) | > 100 µM (inactive) | – | > 100 µM (inactive) | > 100 µM (inactive) | > 100 µM (inactive) | – | > 100 µM (inactive) | > 100 µM (inactive) | > 100 µM (inactive) | – | – | – | – | – |
| O=c1cc(-c2nc3ccccc3[nH]2)[nH]c2nc(-c3nc4ccccc4[nH]3)cc(-c3ccc(Cl)cc3)c12 | 40.2 µM (inactive) | – | 23 µM (inactive) | – | – | 12.2 µM (inactive) | 1.42 µM (inactive) | 12.9 µM (inactive) | 15.9 µM (inactive) | – | 28.6 µM (inactive) | 15.2 µM (inactive) | 16.6 µM (inactive) | – | – | 30.5 µM (inactive) | 19.5 µM (inactive) | 32.8 µM (inactive) | 14.4 µM (inactive) | 15.8 µM (inactive) |
| CC(=O)N1N=C(c2ccc3ccccc3c2O)CC1c1cccs1 (stereo unspecified) | 20.3 µM (inactive) | – | 10.4 µM (inactive) | – | – | 19 µM (inactive) | 11.4 µM (inactive) | 10.9 µM (inactive) | 22.2 µM (inactive) | – | 16.9 µM (inactive) | 3.6 µM (inactive) | 15.6 µM (inactive) | – | – | 28.6 µM (inactive) | 11.1 µM (inactive) | 34 µM (inactive) | 11.6 µM (inactive) | 20.6 µM (inactive) |
| CC(=O)O[C@H]1CC[C@]2(C=O)[C@H]3CC[C@]4(C)[C@@H](C5=CC(=O)OC5)CC[C@]4(O)[C@@H]3CC[C@]2(O)C1 [STROPHANTHIDIN ACETATE] | 0.111 µM (active) | – | 0.231 µM (active) | – | – | 0.324 µM (active) | 0.31 µM (active) | – | 0.13 µM (active) | – | 0.267 µM (active) | 0.528 µM (active) | 0.047 µM (active) | – | 0.212 µM (active) | 0.45 µM (active) | 0.264 µM (active) | 0.164 µM (active) | 0.407 µM (active) | 0.769 µM (active) |
| NC12CCC(CC1=O)C2 (stereo unspecified) | > 100 µM (inactive) | – | > 100 µM (inactive) | – | – | > 100 µM (inactive) | > 100 µM (inactive) | > 100 µM (inactive) | > 100 µM (inactive) | – | > 100 µM (inactive) | > 100 µM (inactive) | > 100 µM (inactive) | – | – | > 100 µM (inactive) | > 100 µM (inactive) | > 100 µM (inactive) | > 100 µM (inactive) | > 100 µM (inactive) |
| O=C1Cc2c(-c3ccccc3)cc(-c3ccccc3)nc2-c2ccccc2N1 | 6.65 µM (inactive) | – | 9.79 µM (inactive) | – | – | 2.66 µM (inactive) | 18.6 µM (inactive) | – | 11 µM (inactive) | – | 3.56 µM (inactive) | – | – | – | – | 4.07 µM (inactive) | 8.69 µM (inactive) | 5.82 µM (inactive) | 10.9 µM (inactive) | 3.48 µM (inactive) |
| O=C1C=CC(=O)C1(Br)Br | 15.5 µM (inactive) | – | 20 µM (inactive) | – | – | 12.5 µM (inactive) | 5.01 µM (inactive) | 11 µM (inactive) | 16.4 µM (inactive) | – | 8.3 µM (inactive) | 3.42 µM (inactive) | 6.75 µM (inactive) | – | 9.18 µM (inactive) | 17.9 µM (inactive) | 14.6 µM (inactive) | 16 µM (inactive) | 14.8 µM (inactive) | 8.22 µM (inactive) |
| COC1C(=[N+]=[N-])C(=O)NC(=O)N1C1OC(COC(c2ccccc2)(c2ccccc2)c2ccccc2)C(O)C1O (stereo unspecified) | 18.2 µM (inactive) | – | 16.1 µM (inactive) | 17.2 µM (inactive) | 19.4 µM (inactive) | 19.1 µM (inactive) | 20.6 µM (inactive) | – | 19.9 µM (inactive) | – | 19.2 µM (inactive) | – | 18.1 µM (inactive) | 17.6 µM (inactive) | – | – | – | – | – | – |
| O=c1[nH]c(=O)n(C2CC(O)C(CO)O2)cc1C#Cc1cc(C(F)(F)F)cc(C(F)(F)F)c1 (stereo unspecified) | 24.4 µM (inactive) | > 31.2 µM (inactive) | 34.8 µM (inactive) | > 45.4 µM (inactive) | > 31.3 µM (inactive) | > 36.9 µM (inactive) | > 36.4 µM (inactive) | – | 26.5 µM (inactive) | – | – | > 100 µM (inactive) | > 29.4 µM (inactive) | > 30.1 µM (inactive) | – | – | – | – | – | – |
| O=C1CSC(C(/N=N/c2ccc(Cl)cc2)c2nc3ccccc3[nH]2)=N1 (stereo unspecified) | 63 µM (inactive) | 26.2 µM (inactive) | > 100 µM (inactive) | > 100 µM (inactive) | 85.7 µM (inactive) | 16 µM (inactive) | – | – | 23.4 µM (inactive) | 60.4 µM (inactive) | 82.8 µM (inactive) | 76.4 µM (inactive) | 28.7 µM (inactive) | 52.6 µM (inactive) | – | – | – | – | – | – |
| CCOC(=O)C(C(C)=O)C1CC=CC1 (stereo unspecified) | – | > 100 µM (inactive) | > 100 µM (inactive) | > 100 µM (inactive) | – | > 100 µM (inactive) | > 100 µM (inactive) | – | – | > 100 µM (inactive) | > 100 µM (inactive) | – | > 100 µM (inactive) | > 100 µM (inactive) | > 100 µM (inactive) | – | – | – | – | – |
